Data as given in patent US10889611B2, “Sialyltransferase inhibitors and uses thereof” (Academia Sinica, priority 2015, dated 2021).

How the values were obtained:
[1] = target: T1, α2,6(N)-sialyltransferases ST6GALI (Homo sapiens, UniProt P15907); assay: Sialyltransferase inhibition assay, ST6GALI (reverse-phase HPLC); assay type: biochemical; conditions: for IC50: IC50 (μM) ST6GALI, α2,6-N-link
T1 construct: purchased RnDSystems.com (R&D Systems)
T1 sequence (P15907 1-406): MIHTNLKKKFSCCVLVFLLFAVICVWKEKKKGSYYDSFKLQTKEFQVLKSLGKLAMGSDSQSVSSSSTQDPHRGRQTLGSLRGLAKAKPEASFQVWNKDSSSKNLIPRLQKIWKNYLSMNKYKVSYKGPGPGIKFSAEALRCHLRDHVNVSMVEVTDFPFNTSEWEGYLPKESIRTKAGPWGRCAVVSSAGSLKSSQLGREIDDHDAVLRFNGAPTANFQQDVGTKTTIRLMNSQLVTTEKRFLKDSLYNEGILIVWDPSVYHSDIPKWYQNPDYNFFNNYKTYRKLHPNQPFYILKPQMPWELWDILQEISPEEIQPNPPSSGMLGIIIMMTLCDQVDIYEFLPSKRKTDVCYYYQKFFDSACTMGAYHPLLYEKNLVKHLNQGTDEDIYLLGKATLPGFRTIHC
Experimental: (§1) The enzymes analyzed in the present study included rat ST3Gal(I), rat ST3Gal(III), and human ST6Gal(I). Rat ST3Gal(I) and rat ST3Gal(Ill), were purchased from Calbiochem®, while human ST6Gal(I) was purchased from RnDSystems.com.
(§2) Sialyltransferase inhibition assay (α2,6-N-ST) was performed as follows: Sialyltransferase activity was determined by measuring the level of the end product of sialylated saccharides with reverse-phase HPLC. The assay mixtures contained the following components: 200 mM MES buffer; 100 mM NaCl; 0.5 mM EDTA; 0.01% Triton X-100; 1.4 mU ST6GALI; 25 μM Galβ1-4GlcNAc; 1 mM CMP-Neu5Ac and different concentration of Sialyltransferase inhibitors to a total volume of 50 μl. The assay mixture was incubated at 37° C. for 15 mins and then quenched by heating up to 101° C. for 10 mins. The sialylated product is resolved with reversed-phase HPLC. Kinetic data were obtained by fitting the initial rate data to the nonlinear regression equation.
(§3) Effects of the present compounds on the activity of sialyltransferase, including α2,3(N)-sialyltransferase ST3GALIII, α2,6(N)-sialyltransferases ST6GALI, and α2,3(O)-sialyltransferase ST3GALI, were determined in accordance with procedures described in the “Materials and Methods” section, and results are summarized in Table 1.

[2] = target: T2, α2,3(O)-sialyltransferase ST3GALI (Rattus norvegicus, UniProt Q6H8N0); assay: Sialyltransferase inhibition assay, ST3GALI (reverse-phase HPLC); assay type: biochemical; conditions: measured at 500 μM; read-out: ST3GALI inhibition percentage
T2 construct: purchased Calbiochem
T2 sequence (Q6H8N0 1-340): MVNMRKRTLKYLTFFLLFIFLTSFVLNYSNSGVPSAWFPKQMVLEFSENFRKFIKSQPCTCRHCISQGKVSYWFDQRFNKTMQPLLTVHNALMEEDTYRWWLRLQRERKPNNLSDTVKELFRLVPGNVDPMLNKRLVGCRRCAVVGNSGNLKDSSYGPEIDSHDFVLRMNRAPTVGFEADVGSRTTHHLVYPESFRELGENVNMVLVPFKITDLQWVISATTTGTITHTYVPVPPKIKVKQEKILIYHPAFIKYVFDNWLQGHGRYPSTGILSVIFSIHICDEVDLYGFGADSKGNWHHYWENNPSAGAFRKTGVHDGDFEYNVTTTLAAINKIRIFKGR
Experimental: as §1
as §2, with “mU ST3GALI; 2.5 mM T-antigen;” for “mU ST6GALI; 25 μM Galβ1-4GlcNAc;”, “to 101′C” for “to 101° C.”, “product was” for “product is”, “resolved by” for “resolved with”
as §3

SMILES	melting point	other results
C[C@H](CCC(=O)OCCOCCN=[N+]=[N-])C1CC[C@H]2[C@@H]3CC[C@@H]4C[C@H](OC(=O)[C@H](CC(=O)O)Nc5ccc([N+](=O)[O-])c6nonc56)CC[C@]4(C)[C@H]3CC[C@]12C (stereo partly drawn) [Compound 2, (3S)-4-(((3R,5R,8R,9S,10S,13R,14S)-17-((R)-5-(2-(2-azidoethoxy)ethoxy)-5-oxopentan-2-yl)-10,13-dimethylhexadecahydro-1H-cyclopenta[a]phenanthren-3-yl)oxy)-3-((7-nitrobenzo[c][1,2,5]oxadiazol-4-yl)amino)-4-oxobutanoic acid]	75 to 76 °C	IC50 [1]: 3 to 7 µM
C[C@H](CCC(=O)OCCOCCOCCN=[N+]=[N-])C1CCC2C3CC[C@@H]4C[C@H](NC(=O)[C@H](CS)Nc5ccc([N+](=O)[O-])c6nonc56)CC[C@]4(C)C3CC[C@@]21C (stereo partly drawn)	68 to 69 °C	–
C[C@H](CCC(=O)OCCOCCOCCN=[N+]=[N-])C1CC[C@H]2[C@@H]3CC[C@@H]4C[C@H](OC(=O)[C@H](CC(=O)O)NC(=O)c5ccc([N+](=O)[O-])cc5)CC[C@]4(C)[C@H]3CC[C@]12C (stereo partly drawn) [Compound 8, (3S)-4-(((3R,5R,8R,9S,10S,13R,14S)-17-((R)-5-(2-(2-(2-azidoethoxy)ethoxy)ethoxy)-5-oxopentan-2-yl)-10,13-dimethylhexadecahydro-1H-cyclopenta[a]phenanthren-3-yl)oxy)-3-(4-nitrobenzamido)-4-oxobutanoic acid]	52 to 53 °C	selectivity ratio ST3GALI/ST6GALI [1]: >94; IC50 [1]: 5.35 ± 0.46 µM; inhibition at 500 µM [2]: 0%
C[C@H](CCC(=O)O)C1CCC2C3CC[C@@H]4C[C@H](NS(=O)(=O)c5cccc6cccnc56)CC[C@]4(C)C3CC[C@@]21C (stereo partly drawn)	138 to 140 °C	–
C[C@H](CCC(=O)OCCOCCOCCN=[N+]=[N-])C1CCC2C3CC[C@@H]4C[C@H](NC(=O)[C@H](CSC(C)(C)C)Nc5ccc([N+](=O)[O-])c6nonc56)CC[C@]4(C)C3CC[C@@]21C (stereo partly drawn)	64 to 65 °C	–
C[C@H](CCC(=O)OCCOCCOCCN=[N+]=[N-])C1CCC2C3CC[C@@H]4C[C@H](NC(=O)[C@H](Cc5c[nH]c6ccccc56)Nc5ccc([N+](=O)[O-])c6nonc56)CC[C@]4(C)C3CC[C@@]21C (stereo partly drawn)	86 to 87 °C	–
C[C@H](CCC(=O)O)C1CCC2C3CC[C@@H]4C[C@H](NS(=O)(=O)c5cccc6c(N(C)C)cccc56)CC[C@]4(C)C3CC[C@@]21C (stereo partly drawn)	136 to 138 °C	–
C[C@H](CCC(=O)O)C1CCC2C3CC[C@@H]4C[C@H](Nc5ccc([N+](=O)[O-])c6nonc56)CC[C@]4(C)C3CC[C@@]21C (stereo partly drawn)	137 to 139 °C	–
C[C@H](CCC(=O)O)C1CCC2C3CC[C@@H]4C[C@H](NC5=C(Cl)C(=O)c6ccccc6C5=O)CC[C@]4(C)C3CC[C@@]21C (stereo partly drawn)	120 to 122 °C	–
COc1cc2nc(Cl)nc(N[C@@H]3CC[C@]4(C)C5CC[C@@]6(C)C(CCC6[C@H](C)CCC(=O)O)C5CC[C@@H]4C3)c2cc1OC (stereo partly drawn)	178 to 180 °C	–
C[C@H](CCC(=O)OCCOCCOCCOCCN=[N+]=[N-])C1CC[C@H]2[C@@H]3CC[C@@H]4C[C@H](OC(=O)[C@H](CC(=O)O)NC(=O)c5ccc([N+](=O)[O-])cc5)CC[C@]4(C)[C@H]3CC[C@]12C (stereo partly drawn) [Compound 9, (3S)-4-(((3R,5R,8R,9S,10S,13R,14S)-17-((R)-1-azido-13-oxo-3,6,9,12-tetraoxaheptadecan-16-yl)-10,13-dimethylhexadecahydro-1H-cyclopenta[a]phenanthren-3-yl)oxy)-3-(4-nitrobenzamido)-4-oxobutanoic acid]	–	selectivity ratio ST3GALI/ST6GALI [1]: >88; IC50 [1]: 5.7 ± 0.36 µM; inhibition at 500 µM [2]: 0%
C[C@H](CCC(=O)O)C1CCC2C3CC[C@@H]4C[C@H](Nc5ccc6ccccc6n5)CC[C@]4(C)C3CC[C@@]21C (stereo partly drawn)	140 to 142 °C	–
C[C@H](CCC(=O)OCCOCCOCCN=[N+]=[N-])C1CCC2C3CC[C@@H]4C[C@H](NC(=O)[C@H](CCCCN)Nc5ccc([N+](=O)[O-])c6nonc56)CC[C@]4(C)C3CC[C@@]21C (stereo partly drawn)	84 to 85 °C	–
C[C@H](CCC(=O)O)C1CCC2C3CC[C@@H]4C[C@H](NS(=O)(=O)c5cc6ccccc6s5)CC[C@]4(C)C3CC[C@@]21C (stereo partly drawn)	132 to 134 °C	–
C[C@H](CCC(=O)O)C1CCC2C3CC[C@@H]4C[C@H](NC(=O)[C@@H](N)CC(=O)O)CC[C@]4(C)C3CC[C@@]21C (stereo partly drawn)	158 to 160 °C	–
C[C@H](CCC(=O)OCCOCCOCCN=[N+]=[N-])C1CCC2C3CC[C@@H]4C[C@H](NC(=O)[C@H](Cc5ccc(O)cc5)Nc5ccc([N+](=O)[O-])c6nonc56)CC[C@]4(C)C3CC[C@@]21C (stereo partly drawn)	72 to 73 °C	–
C[C@H](CCC(=O)OCCOCCOCCN=[N+]=[N-])C1CCC2C3CC[C@@H]4C[C@H](NC(=O)[C@H](CCCNC(=N)N)Nc5ccc([N+](=O)[O-])c6nonc56)CC[C@]4(C)C3CC[C@@]21C (stereo partly drawn)	78 to 79 °C	–
C[C@H](Nc1ccc([N+](=O)[O-])c2nonc12)C(=O)N[C@@H]1CC[C@]2(C)C3CC[C@@]4(C)C(CCC4[C@H](C)CCC(=O)OCCOCCOCCN=[N+]=[N-])C3CC[C@@H]2C1 (stereo partly drawn)	69 to 70 °C	–
C[C@H](CCC(=O)O)C1CCC2C3CC[C@@H]4C[C@H](NS(=O)(=O)c5c(Cl)ccc6nonc56)CC[C@]4(C)C3CC[C@@]21C (stereo partly drawn)	128 to 130 °C	–
C[C@H](CCC(=O)OCCOCCOCCN=[N+]=[N-])C1CCC2C3CC[C@@H]4C[C@H](NC(=O)[C@H](Cc5ccccc5)Nc5ccc([N+](=O)[O-])c6nonc56)CC[C@]4(C)C3CC[C@@]21C (stereo partly drawn)	65 to 66 °C	–
C[C@H](CCC(=O)O)C1CCC2C3CC[C@@H]4C[C@H](NC(=O)[C@H](CC(=O)O)Nc5ccc([N+](=O)[O-])c6nonc56)CC[C@]4(C)C3CC[C@@]21C (stereo partly drawn)	134 to 136 °C	–
C[C@H](CCC(=O)O)C1CCC2C3CC[C@@H]4C[C@H](Nc5nc6ccccc6nc5Cl)CC[C@]4(C)C3CC[C@@]21C (stereo partly drawn)	118 to 120 °C	–
C[C@H](CCC(=O)OCCOCCOCCOCCOCCN=[N+]=[N-])C1CC[C@H]2[C@@H]3CC[C@@H]4C[C@H](OC(=O)[C@H](CC(=O)O)NC(=O)c5ccc([N+](=O)[O-])cc5)CC[C@]4(C)[C@H]3CC[C@]12C (stereo partly drawn) [Compound 10, (3S)-4-(((3R,5R,8R,9S,10S,13R,14S)-17-((R)-1-azido-16-oxo-3,6,9,12,15-pentaoxaicosan-19-yl)-10,13-dimethylhexadecahydro-1H-cyclopenta[a]phenanthren-3-yl)oxy)-3-(4-nitrobenzamido)-4-oxobutanoic acid]	–	selectivity ratio ST3GALI/ST6GALI [1]: >67; IC50 [1]: 7.45 ± 0.36 µM; inhibition at 500 µM [2]: 0%
C[C@H](CCC(=O)OCCOCCOCCN=[N+]=[N-])C1CCC2C3CC[C@@H]4C[C@H](NC(=O)[C@H](CCC(=O)O)Nc5ccc([N+](=O)[O-])c6nonc56)CC[C@]4(C)C3CC[C@@]21C (stereo partly drawn)	77 to 78 °C	–
C[C@H](CCC(=O)OCCOCCOCCN=[N+]=[N-])C1CCC2C3CC[C@@H]4C[C@H](NC(=O)C5CCCN5c5ccc([N+](=O)[O-])c6nonc56)CC[C@]4(C)C3CC[C@@]21C (stereo partly drawn)	62 to 64 °C	–
